The record followed here is patent publication US20250154138A1, “Small Molecule IL-17A Modulators” (BeiGene, Ltd., priority 2022, published 2025).

The assay has as its target human IL-17A / human IL-17RA (Homo sapiens (Human), UniProt Q16552). The experiment in a line: Human IL-17A biochemical assay (HTRF, blocking of IL-17A binding to IL-17RA). The conditions noted are these: 0.4 nM IL-17A, 0.3 nM IL-17RA, max compound concentration 10 uM. The method, then:
Compounds disclosed herein were tested for blocking of human IL-17A (Cat: C774, novoprotein) protein with its receptor human IL-17RA (Cat: C153, novoprotein) in an assay based on Homogeneous Time Resolved Fluorescence. 0.4 nM recombinant human IL-17A protein was pre-incubated with a serial dilution of compounds disclosed herein (maximum concentration is 10 uM, 2.7-fold serially diluted, 10 points) at room temperature for 3 hours in an assay buffer containing 20 mM HEPES, pH 7.5, 50 mM NaCl, 0.1% BSA, 0.2 mM DTT, 0.005% Tween 20. Then 0.3 nM recombinant human IL-17RA was added to plate and further incubated at room temperature for 1 hour. After that Mab Anti-6His Tb cryptate Gold (Cat: 61HI2TLB, Cisbio Bioassays) and MAb Anti Human IgG-XL665 (Cat: 61HFCXLB, Cisbio Bioassays) were added to plate and further incubated at room temperature for 1 hour. The HTRF signals (ex337 nm, em620 nm/665 nm) were read on BMG PHERAstar FSX instrument. The inhibition percentage of human IL-17A interaction with its receptor human IL-17RA in presence of increasing concentrations of compounds was calculated based on the ratio of […]. The IC50 for each compound was derived from fitting the data to the four-parameter logistic equation by Dotmatics.
In general terms: In TR-FRET formats the signal depends on donor and acceptor labels being close together.

human IL-17A / human IL-17RA, sequence (Q16552 24-155): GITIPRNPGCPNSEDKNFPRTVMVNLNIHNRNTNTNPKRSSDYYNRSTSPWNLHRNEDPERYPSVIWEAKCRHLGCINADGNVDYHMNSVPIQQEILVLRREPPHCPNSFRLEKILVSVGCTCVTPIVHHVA

With `CNC(=O)C1(N2C[C@@H](C(C)C)NC2=O)Cc2ccc(NC(=O)[C@@H](NC(=O)c3ccnn3C)C3CCOCC3)cc2C1` (stereo partly drawn) [Example 85, N-((1S)-2-((2-((R)-4-isopropyl-2-oxoimidazolidin-1-yl)-2-(methylcarbamoyl)-2,3-dihydro-1H-inden-5-yl)amino)-2-oxo-1-(tetrahydro-2H-pyran-4-yl)ethyl)-1-methyl-1H-pyrazole-5-carboxamide], the concentration for half-maximal inhibition (IC50) (usually the concentration at which inhibition is half-maximal) was found to be 10100 nM.

`CNC(=O)C1(N2CC(CC3CCCCC3)NC2=O)Cc2ccc(NC(=O)[C@@H](NC(=O)c3ccnn3C)C3CCCCC3)cc2C1` (stereo partly drawn) [Example 88, N-((1S)-1-cyclohexyl-2-((2-(4-(cyclohexylmethyl)-2-oxoimidazolidin-1-yl)-2-(methylcarbamoyl)-2,3-dihydro-1H-inden-5-yl)amino)-2-oxoethyl)-1-methyl-1H-pyrazole-5-carboxamide]: the 50% inhibitory concentration (IC50) came out at 2060 nM.

On to `CNC(=O)C1(N2CC(C3CCc4ccccc43)NC2=O)Cc2ccc(NC(=O)[C@@H](NC(=O)c3ccnn3C)C3CCCCC3)cc2C1` (stereo partly drawn) [Example 92, N-((1S)-1-cyclohexyl-2-((2-(4-(2,3-dihydro-1H-inden-1-yl)-2-oxoimidazolidin-1-yl)-2-(methylcarbamoyl)-2,3-dihydro-1H-inden-5-yl)amino)-2-oxoethyl)-1-methyl-1H-pyrazole-5-carboxamide], for which the IC50 was determined as 3040 nM.

Regarding `CNC(=O)C1(N2C[C@@H](C(C)C)NC2=O)Cc2ccc(NC(=O)[C@H](NC(=O)c3ccnn3C)C(C3CC3)C3CC3)cc2C1` (stereo partly drawn) [Example 93, N-((2R)-1,1-dicyclopropyl-3-((2-((R)-4-isopropyl-2-oxoimidazolidin-1-yl)-2-(methylcarbamoyl)-2,3-dihydro-1H-inden-5-yl)amino)-3-oxopropan-2-yl)-1-methyl-1H-pyrazole-5-carboxamide], the IC50 was 830 nM.

The compound `CNC(=O)C1(N2CCC(C)NC2=O)Cc2ccc(NC(=O)[C@@H](NC(=O)c3ccnn3C)C3CCCCC3)cc2C1` (stereo partly drawn) [Example 95, N-((1S)-1-cyclohexyl-2-((2-(4-methyl-2-oxotetrahydropyrimidin-1(2H)-yl)-2-(methylcarbamoyl)-2,3-dihydro-1H-inden-5-yl)amino)-2-oxoethyl)-1-methyl-1H-pyrazole-5-carboxamide] displayed a half-inhibitory concentration (IC50) of 4230 nM.

`CNC(=O)C1(N2C[C@@H](CCc3ccccc3)NC2=O)Cc2ccc(NC(=O)[C@@H](NC(=O)c3ccnn3C)C3CCCCC3)cc2C1` (stereo partly drawn) [Example 96, N-((1S)-1-cyclohexyl-2-((2-(methylcarbamoyl)-2-((R)-2-oxo-4-phenethylimidazolidin-1-yl)-2,3-dihydro-1H-inden-5-yl)amino)-2-oxoethyl)-1-methyl-1H-pyrazole-5-carboxamide] registered an IC50 of 2320 nM. This IC50 is about 1.8-fold lower than that of the compound before.

The compound `CNC(=O)C1(N2C[C@@H](C(C)C)NC2=O)Cc2ccc(NC(=O)[C@@H](NC(=O)c3ccn(CCO)n3)C3CCCCC3)cc2C1` (stereo partly drawn) [Example 103, N-((1S)-1-cyclohexyl-2-((2-((R)-4-isopropyl-2-oxoimidazolidin-1-yl)-2-(methylcarbamoyl)-2,3-dihydro-1H-inden-5-yl)amino)-2-oxoethyl)-1-(2-hydroxyethyl)-1H-pyrazole-3-carboxamide] gave an IC50 of 2700 nM.

The compound `CNC(=O)C1(N2CC(C)(Cc3ccccc3)CNC2=O)Cc2ccc(NC(=O)[C@@H](NC(=O)c3ccnn3C)C3CCCCC3)cc2C1` (stereo partly drawn) [Example 109, N-((1S)-2-((2-(5-benzyl-5-methyl-2-oxotetrahydropyrimidin-1(2H)-yl)-2-(methylcarbamoyl)-2,3-dihydro-1H-inden-5-yl)amino)-1-cyclohexyl-2-oxoethyl)-1-methyl-1H-pyrazole-5-carboxamide] came in with an IC50 of 3450 nM.

For the compound `CNC(=O)C1(N2C[C@@H](C(C)C)NC2=O)Cc2ccc(NC(=O)C(Cc3cc(Cl)ccc3Cl)NC(=O)c3ccnn3C)cc2C1` (stereo partly drawn) [Example 127, N-(3-(2,5-dichlorophenyl)-1-((2-((R)-4-isopropyl-2-oxoimidazolidin-1-yl)-2-(methylcarbamoyl)-2,3-dihydro-1H-inden-5-yl)amino)-1-oxopropan-2-yl)-1-methyl-1H-pyrazole-5-carboxamide], the IC50 is 698 nM.

The compound `CNC(=O)C1(N2CC3(CC3)CNC2=O)Cc2ccc(NC(=O)[C@@H](NC(=O)c3ccn(C4CC(O)C4)n3)C3CCCCC3)cc2C1` (stereo partly drawn) [Example 133, N-((1S)-1-cyclohexyl-2-((2-(methylcarbamoyl)-2-(6-oxo-5,7-diazaspiro[2.5]octan-5-yl)-2,3-dihydro-1H-inden-5-yl)amino)-2-oxoethyl)-1-(3-hydroxycyclobutyl)-1H-pyrazole-3-carboxamide] gave an IC50 of 320 nM.

As to `CNC(=O)C1(N2CCCNC2=O)Cc2ccc(NC(=O)[C@@H](NC(=O)c3ccnn3C)C3CCCCC3)cc2C1` (stereo partly drawn) [Example 134, N-((1S)-1-cyclohexyl-2-((2-(methylcarbamoyl)-2-(2-oxotetrahydropyrimidin-1(2H)-yl)-2,3-dihydro-1H-inden-5-yl)amino)-2-oxoethyl)-1-methyl-1H-pyrazole-5-carboxamide], the IC50 is 311 nM.

Compound `CNC(=O)C1(N2CC(Cc3ccc(C#N)cc3)NC2=O)Cc2ccc(NC(=O)[C@@H](NC(=O)c3ccnn3C)C3CCCCC3)cc2C1` (stereo partly drawn) [Example 140, N-((1S)-2-((2-(4-(4-cyanobenzyl)-2-oxoimidazolidin-1-yl)-2-(methylcarbamoyl)-2,3-dihydro-1H-inden-5-yl)amino)-1-cyclohexyl-2-oxoethyl)-1-methyl-1H-pyrazole-5-carboxamide] came in with an IC50 of 277 nM.

As for `CNC(=O)C1(N2CC3(CC3)CNC2=O)Cc2ccc(NC(=O)[C@@H](NC(=O)c3cnc4c(C#N)cccn34)C3CCCCC3)cc2C1` (stereo partly drawn) [Example 180, 8-cyano-N-((1S)-1-cyclohexyl-2-((2-(methylcarbamoyl)-2-(6-oxo-5,7-diazaspiro[2.5]octan-5-yl)-2,3-dihydro-1H-inden-5-yl)amino)-2-oxoethyl)imidazo[1,2-a]pyridine-3-carboxamide], the IC50 was found to be 3680 nM.

For the compound `Cc1nonc1C(=O)N[C@H](C(=O)Nc1ccc2c(c1)CC(C(=O)Nc1ccc(C(F)(F)F)c(Cl)c1)(N1C[C@@H](C(C)C)NC1=O)C2)C(C1CC1)C1CC1` (stereo partly drawn) [Example 260, N-((2S)-1-((2-((3-chloro-4-(trifluoromethyl)phenyl)carbamoyl)-2-((R)-4-isopropyl-2-oxoimidazolidin-1-yl)-2,3-dihydro-1H-inden-5-yl)amino)-3,3-dicyclopropyl-1-oxopropan-2-yl)-4-methyl-1,2,5-oxadiazole-3-carboxamide], the IC50 was more than 10000 nM.

For the compound `Cc1nonc1C(=O)N[C@H](C(=O)Nc1ccc2c(c1)CC(C(=O)Nc1ccc(Cl)cc1Cl)(N1C[C@@H](C(C)C)NC1=O)C2)C(C1CC1)C1CC1` (stereo partly drawn) [Example 264, N-((2S)-1,1-dicyclopropyl-3-((2-((2,4-dichlorophenyl)carbamoyl)-2-((R)-4-isopropyl-2-oxoimidazolidin-1-yl)-2,3-dihydro-1H-inden-5-yl)amino)-3-oxopropan-2-yl)-4-methyl-1,2,5-oxadiazole-3-carboxamide], the IC50 amounted to 2540 nM. In other words, the single-digit micromolar range.

In turn, `Cc1nonc1C(=O)N[C@H](C(=O)Nc1ccc2c(c1)CC(C(=O)Nc1cc(Cl)cc(Cl)c1)(N1C[C@@H](C(C)C)NC1=O)C2)C(C1CC1)C1CC1` (stereo partly drawn) [Example 265, N-((2S)-1,1-dicyclopropyl-3-((2-((3,5-dichlorophenyl)carbamoyl)-2-((R)-4-isopropyl-2-oxoimidazolidin-1-yl)-2,3-dihydro-1H-inden-5-yl)amino)-3-oxopropan-2-yl)-4-methyl-1,2,5-oxadiazole-3-carboxamide] returned an IC50 of 8070 nM.

On to `Cc1nonc1C(=O)N[C@H](C(=O)Nc1ccc2c(c1)CC(C(=O)Nc1ccc(C3CC3)cc1Cl)(N1C[C@@H](C(C)C)NC1=O)C2)C(C1CC1)C1CC1` (stereo partly drawn) [Example 267, N-((2S)-1-((2-((2-chloro-4-cyclopropylphenyl)carbamoyl)-2-((R)-4-isopropyl-2-oxoimidazolidin-1-yl)-2,3-dihydro-1H-inden-5-yl)amino)-3,3-dicyclopropyl-1-oxopropan-2-yl)-4-methyl-1,2,5-oxadiazole-3-carboxamide], for which the IC50 is more than 10000 nM.

The compound `Cc1nonc1C(=O)N[C@H](C(=O)Nc1ccc2c(c1)CC(CN1C[C@@H](C(F)(F)F)NC1=O)O2)C(C1CC1)C1CC1` (stereo partly drawn) [Example 293, N-((2S)-1,1-dicyclopropyl-3-oxo-3-((2-(((S)-2-oxo-4-(trifluoromethyl)imidazolidin-1-yl)methyl)-2,3-dihydrobenzofuran-5-yl)amino)propan-2-yl)-4-methyl-1,2,5-oxadiazole-3-carboxamide] had an IC50 of more than 10000 nM.
